# Patent US12636291B2, “Compositions and methods relating to use of agonists of ALPHA5-containing GABAA receptors” (Centre for Addiction and Mental Health, priority 2019, dated 2026)
# Tests used:
# old mice = experiment: Spontaneous alternation in the Y-Maze (working memory), normal aging; format: in vivo, mouse; conditions: GL-II-73 in drinking water 8 weeks (30 mg/kg) vs old mice vehicle (52.6%; young 79.6%), p=0.01
# Text: The percentage of alternation during the Y maze test can be considered as an index of working memory performance (50% of alternation corresponding to a random alternation rate). […] ANOVA analysis indicates a significant difference between all groups (F(2;25)=11.34; p=0.0003).
# Animals: For the experiments described above, young (n=11, age 2 months) and old male mice (N=23) were purchased from Charles River. Old mice were obtained at the age of 9-10 months and were kept in the animal facility until they reached the age of 22 months. Young mice (2 months old) were purchased when old mice had already reached the age of 22 months. All animals were single housed. Experiments were performed on mice aged 2 months (“young”) or 22 months (“old”) at the beginning of the experimental protocol. The second set of experiments with the Washout group included 8 young mice and 22 old mice. Old mice were split into 3 groups of 7-8 between “Old”, “Old-treated” and “Old-Washout”. Finally, the pilot with the 5×FAD mice was performed with 15 heterozygote 5×FAD mice, bred in the animal facility of the Centre for Addiction and Mental Health, Toronto (ON, Canada). […]
# Spontaneous alternation in the Y-Maze: Mice were tested in a Y maze test as an assessment of working memory. […] The alternation rate was calculated and was expressed as a percentage: […]
# [1] = test system: cultured pyramidal neurons; experiment: Morphology of cultured GFP-expressing pyramidal neurons after acute treatment; format: cell-based, mouse; conditions: 1 μM, 24 hrs, vs vehicle (0.01% DMSO); FIG. 11A-B; initial data
# Protocol: Transgenic mice were generated to express a fluorescent protein (GFP) only in pyramidal neurons. Embryos were collected at E17, and brain homogenates were plated and cultured under suitable conditions for neuronal growth. Following 2 weeks of incubation and growth, the compound GL-II-73 (1 μM) or vehicle was applied and left for 24 hrs. Isolated cells were then used to image the entire neuron and visualize dendrites and spines on a single neuron.
smiles,measurement,setting,value
"C#Cc1ccc2c(c1)C(c1ccccc1F)=N[C@H](C)c1c(C(=O)N(C)C)ncn1-2 (stereo in doubt) [GL-II-73, 8-ethynyl-6-(2-fluorophenyl)-N,N,4-trimethyl-4H-benzo[f]imidazo[1,5-a][1,4]diazepine-3-carboxamide]",alternation rate in the Y maze test,old mice,higher alternation rate than old mice receiving only vehicle
same,dendritic length,[1],longer dendrites
same,spine density (spines),[1],more spines
